The values below are quoted from earlier work in patent US20220226500A1, “FULLERENIC ELLAGIC LUTEOLIN AND METHODS” (Sinapu LLC, priority 2021, published 2022).

The conditions of data set [1]: human body.
For data set [2] the following is noted: in water.

As for `O=c1oc2c(O)c(O)cc3c(=O)oc4c(O)c(O)cc1c4c23` [ellagic acid], the “time in which more than half of the absorbed blood plasma level is broken down” value in data set [1] is “within one hour”. The solubility in data set [2] is recorded as 0.0097 grams per liter of water.
